In patent US8314234B2, “Bicyclic pyrimidine kinase inhibitors” (Janssen Pharmaceutica N.V., priority 2006, dated 2012):

What was measured:
[1] = target: T1, EGFR (Homo sapiens, UniProt P00533); assay: EGFR Kinase Assay; assay type: biochemical; details: test concentration of 2 μM
T1 construct: intracellular portion of EGFR started at nucleotide 2189 (corresponding to amino acid 667) and ended at the termination codon; made in house; host or cells: Sf9 insect cells (baculovirus)
Text: The EGFR kinase used was a fusion of Glutathione-S-Transferase (GST) and a PCR amplified intracellular portion of EGFR (NM_005228). The intracellular portion of EGFR started at nucleotide 2189 (corresponding to amino acid 667) and ended at the termination codon. The portion was PCR amplified with primers that added the lambda attB sequences to each end, recombined into an entry vector, then into a GST destination vector (as described in Gateway Technologies Manual by Invitrogen Corporation, Carlsbad, Calif.).
The destination vector was recombined in the DH10BAC strain of bacteria to produce a bacmid. The bacmid was transfected into Sf9 cells and the supernatant containing the baculovirus was collected. The GSTEGFR protein was purified using large cultures of Sf9 cells infected with stock virus. After an appropriate period of time, the cells were collected and lysed. The GSTEGFR was then purified from the lysate on Glutathione-Sepharose columns (as described by Amersham Biosciences, Buckinghamshire, United Kingdom).
The EGFR substrate was prepared by biotinylating polyGluTyr (128 mg) (Sigma, St. Louis, Mo.) in a 1×PBS buffer incubated together with a 12-fold molar excess of Sulfo-NHS-LC-Biotin on ice for at least 2 hrs. The free biotin was separated from the biotinylated polyGluTyr on a gel filtration column.
A mixture of a 10× kinase buffer (500 mM Tris at pH 8.0, 100 mM Magnesium Chloride and 1 mM Sodium Vanadate), DTT (1 mM final from 500 mM stock), ATP (5 μM final from 10 mM stock), biotinylated polyGluTyr (10 μg/μL stock), γ-^33P ATP (10 μCi/μL stock) and water was added to each well (90 μL/well) of a Streptavidin Flashplate (Perkin Elmer, Wellesley, Mass.).
Test compound in 100% DMSO (2 μL) was added to the appropriate wells. Diluted GSTEGFR (1:300 dilution in 50 mM Tris at pH 8.0 and 0.1% bovine serum albumin) (10 μL) was added to the wells to initiate the reactions.
The plates were incubated at 30° C. for 1 hr with shaking. The reacted contents were removed and the plates were sequentially washed three times with a 1×PBS stop buffer (300 μL without Magnesium and Calcium) and 100 mM EDTA. After the final wash, the same stop buffer (200 μL) was added to the wells. The plates were then sealed and read on the TopCount scintillation counter.
Test compounds were assayed in triplicate at 16 concentrations at half-log dilutions starting at 200 uM. A maximum and minimum signal for the assay was determined on each plate. The percent inhibition of a test compound was calculated according to the formula
For a series of test concentrations, the IC50 was derived by graphing percent inhibition against the log of the concentrations tested for a given compound. The percent inhibition results are shown in Table 1 at a test concentration of 2 μM. For those compounds with an IC50, the IC50 value is shown in parentheses.

[2] = tested on: HCT-116 colon carcinoma; assay: Cell Proliferation Inhibition Assay (14C-thymidine incorporation), HCT-116; assay type: cell-based; details: Homo sapiens
Text: (§1) The ability of a test compound to inhibit unregulated cell proliferation may be determined by measuring incorporation of ^14C-labelled thymidine into newly synthesized DNA within cell lines derived from carcinomas originating from several tissues. Accordingly, the anti-proliferative effect of a compound on cells with a variety of phenotypes may be determined.
(§2) Carcinoma cell lines include those such as HeLa cervical adenocarcinoma (American Type Culture Collection (ATCC), Virginia, Cat. #CCL-2), A375 malignant melanoma (ATCC CRL-1619), SK-OV-3 ovarian adenocarcinoma (ATCC HTB-77), HCT-116 colon carcinoma (CCL-247), PC-3 prostate adenocarcinoma (ATCC CRL-1435), and MDA-MB-231 (Xenogen Corp.)
(§3) The carcinoma cells are trypsinized and counted. The cells (3000-8000 count) are added to each well of a 96-well CytoStar tissue culture treated scintillating microplate (Amersham #RPNQ0160) in complete medium (100 μL) and the plate is then incubated in complete medium for 24 hrs at 37° C. in an inert atmosphere containing 5% CO2. Test compound (1 μL) in 100% DMSO is added to the plate test-wells with DMSO only added to control-wells. The plate is incubated in complete medium for a second 24 hr period at 37° C. in an atmosphere containing 5% CO2.
(§4) An aliquot of a solution of Methyl ^14C-thymidine (56 mC/mmol) (NEN #NEC568 or Amersham #CFA532) and complete medium (20 uL to provide 0.2 μCi/well) is then added to each well and the plate is incubated for a third 24 hr period at 37° C. in an atmosphere containing 5% CO2. The plate contents are then discarded, the plate is washed twice with PBS (200 μL) and then PBS (200 μL) is added to each well. The plate is sealed and the degree of methyl ^14C-thymidine incorporation is quantified on a Packard Top Count.

[3] = tested on: A375 malignant melanoma; assay: Cell Proliferation Inhibition Assay (14C-thymidine incorporation), A375; assay type: cell-based; details: Homo sapiens, A-375
Text: as §1, §2, §3, §4

[4] = target: VEGFR2 (Rattus norvegicus, UniProt O08775); assay: VEGFR2 screening assay; assay type: biochemical
VEGFR2, sequence (O08775 786-1343): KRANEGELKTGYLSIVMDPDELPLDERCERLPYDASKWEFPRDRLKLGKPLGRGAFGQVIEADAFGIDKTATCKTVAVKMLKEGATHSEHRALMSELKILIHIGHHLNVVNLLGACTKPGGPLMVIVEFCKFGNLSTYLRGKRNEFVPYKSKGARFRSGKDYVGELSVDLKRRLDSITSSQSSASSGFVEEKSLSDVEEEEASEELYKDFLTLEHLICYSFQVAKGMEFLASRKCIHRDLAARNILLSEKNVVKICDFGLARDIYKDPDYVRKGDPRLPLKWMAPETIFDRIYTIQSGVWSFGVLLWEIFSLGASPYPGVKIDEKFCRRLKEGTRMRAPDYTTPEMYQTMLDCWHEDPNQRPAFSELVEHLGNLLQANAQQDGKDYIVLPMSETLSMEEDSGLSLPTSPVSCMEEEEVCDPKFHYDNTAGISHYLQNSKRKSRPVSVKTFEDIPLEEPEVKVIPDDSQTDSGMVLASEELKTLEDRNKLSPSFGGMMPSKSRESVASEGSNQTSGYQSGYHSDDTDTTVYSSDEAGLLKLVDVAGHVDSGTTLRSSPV
Description: A kinase reaction mixture was prepared containing 50 mM Tris-HCl pH=8, 10 mM MgCl2, 0.1 mM […], 1 mM DTT, 10 μM ATP, 0.025 μM biotinylated histone-H1 peptide substrate and 0.2 μCuries per well ^33P-γ-ATP (2000-3000 Ci/mmol). 70 μL of the kinase reaction mixture was dispensed into the well of a streptavidin coated FlashPlate™ (Cat. #SMP103, NEN, Boston, Mass.).
(§5) Test compound stock in 100% DMSO (1 μL) was added to the wells resulting in a final concentration of 1% DMSO in the reaction with a 100 μL final reaction volume. Each enzyme was diluted in 50 mM Tris-HCl pH=8.0, 0.1% BSA and 30 μL was added to each well to initiate the reaction. The reaction was incubated for one hour at 30° C. At the end of the 1 hr incubation, the reaction was terminated by aspirating the mixture from the plate and washing the wells twice with PBS containing 100 mM EDTA. The biotinylated peptide substrate became immobilized on the Flashplate and the incorporation of ^33P-γ-ATP was measured by reading the plate on a scintillation counter. Inhibition of the enzymatic activity was measured by observing a reduced amount of ^33P-γ-ATP incorporated into the immobilized peptide.
The VEGF-R2 enzyme is a fusion protein containing a polyhistidine tag at the N terminus followed by amino acids 786 to 1343 of the rat VEGF-R2 kinase domain (Accession number U93306). The assay used 150 ng of the N-terminal biotinylated peptide biotin-[…]-amide SEQ ID NO: 2) (VEGF-R2) per well.
(§6) A maximum and minimum signal for the assay was determined on each plate. The percent inhibition of a test compound was calculated according to the formula: […]
For a series of test concentrations, the IC50 was derived by graphing percent inhibition against the log of the concentrations tested for a given compound with results shown in Table 2. For those compounds without an IC50, the inhibition values in percent are shown at a test concentration of 2 μM. The term “ND” means “not determined.”

[5] = target: T2, CDK2 (Homo sapiens, UniProt P24941); assay: CDK-2 screening assay; assay type: biochemical
T2 construct: purchased Upstate Biotech, Lake Placid, N.Y
Description: (§7) 70 μL of the kinase reaction mixture was dispensed into the well of a streptavidin coated FlashPlate™ (Cat. #SMP103, NEN, Boston, Mass.).
as §5
The CDK2 enzyme in complex with cyclin A is commercially available (Upstate Biotech, Lake Placid, N.Y.).
as §6
(§8) The term “ND” means “not determined.”

[6] = target: T3, CDK1 (Homo sapiens, UniProt P06493); assay: CDK-1 screening assay; assay type: biochemical
T3 construct: purchased New England Biolabs, Beverly, Mass; 6020; host or cells: insect cells
T3 sequence (P06493 whole entry): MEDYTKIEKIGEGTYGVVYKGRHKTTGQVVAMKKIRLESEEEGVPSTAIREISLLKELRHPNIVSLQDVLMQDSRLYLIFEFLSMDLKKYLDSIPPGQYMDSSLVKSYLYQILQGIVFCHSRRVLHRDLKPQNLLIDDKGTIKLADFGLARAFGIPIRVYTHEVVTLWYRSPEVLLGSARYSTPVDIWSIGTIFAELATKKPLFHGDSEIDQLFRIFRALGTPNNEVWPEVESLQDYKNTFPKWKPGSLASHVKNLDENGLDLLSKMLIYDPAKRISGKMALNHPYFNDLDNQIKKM
T3 sequence (P14635 whole entry partner): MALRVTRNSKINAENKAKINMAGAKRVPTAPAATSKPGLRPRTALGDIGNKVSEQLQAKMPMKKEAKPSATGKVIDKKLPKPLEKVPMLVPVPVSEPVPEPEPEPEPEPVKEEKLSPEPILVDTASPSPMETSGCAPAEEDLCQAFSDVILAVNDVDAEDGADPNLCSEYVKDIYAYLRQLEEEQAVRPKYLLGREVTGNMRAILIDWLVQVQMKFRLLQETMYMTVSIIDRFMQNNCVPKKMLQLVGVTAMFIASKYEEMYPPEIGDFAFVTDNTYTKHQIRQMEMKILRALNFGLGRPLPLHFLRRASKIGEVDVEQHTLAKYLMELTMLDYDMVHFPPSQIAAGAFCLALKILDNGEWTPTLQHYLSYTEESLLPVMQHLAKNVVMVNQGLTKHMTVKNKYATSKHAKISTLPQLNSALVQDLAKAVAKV
Description: as §7, §5, §6, §8

[7] = tested on: HeLa cervical adenocarcinoma; assay: Cell Proliferation Inhibition Assay (14C-thymidine incorporation), HeLa; assay type: cell-based; details: Homo sapiens
Text: as §1, §2, §3, §4

T1 sequence (P00533 669-1210 limits assumed): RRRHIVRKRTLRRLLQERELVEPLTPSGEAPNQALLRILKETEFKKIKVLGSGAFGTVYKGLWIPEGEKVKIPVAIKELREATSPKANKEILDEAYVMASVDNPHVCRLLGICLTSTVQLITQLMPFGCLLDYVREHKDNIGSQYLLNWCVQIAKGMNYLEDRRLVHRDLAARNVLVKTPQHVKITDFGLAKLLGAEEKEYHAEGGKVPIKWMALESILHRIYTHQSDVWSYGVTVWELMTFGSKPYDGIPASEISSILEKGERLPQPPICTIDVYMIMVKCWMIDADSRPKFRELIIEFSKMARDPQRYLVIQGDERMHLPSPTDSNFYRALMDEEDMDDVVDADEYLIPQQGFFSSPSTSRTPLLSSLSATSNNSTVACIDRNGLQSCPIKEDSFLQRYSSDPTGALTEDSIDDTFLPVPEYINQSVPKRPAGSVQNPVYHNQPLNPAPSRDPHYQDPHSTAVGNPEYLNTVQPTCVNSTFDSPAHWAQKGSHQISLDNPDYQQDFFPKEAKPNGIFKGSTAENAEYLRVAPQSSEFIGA

Row | Compound | inhibition at 2 µM [1] [%] | IC50 [2] [µM] | IC50 [3] [µM] | IC50 [4] [µM] | IC50 [5] [µM] | IC50 [6] [µM] | IC50 [7] [µM]
1 | O=S(=O)(NCCO)c1ccc(Nc2nc(Nc3ccc(S(=O)(=O)NCCO)cc3)c3cn[nH]c3n2)cc1 [Cpd 3, N^4,N^6-bis-{4-[(2-hydroxy-ethyl)-amino-sulfonyl]-phenyl}-1H-pyrazolo[3,4-d]pyrimidine-4,6-diamine] | 78 | 100 | 32.6 | 0.328 | 0.018 | 0.079 | 10
2 | NS(=O)(=O)c1ccc(Nc2nc(Nc3ccc(S(N)(=O)=O)cc3)c3cnoc3n2)cc1 [Cpd 5, N^4,N^6-bis-[4-(amino-sulfonyl)-phenyl]-isoxazolo[5,4-d]pyrimidine-4,6-diamine] | 39 | 38.2 | 27 | 2.45 | 0.443 | 2.53 | 70.7
3 | NS(=O)(=O)c1ccc(Nc2nc(Nc3ccccn3)c3cnoc3n2)cc1 [Cpd 7, 4-[4-(pyridin-2-ylamino)-isoxazolo[5,4-d]pyrimidin-6-ylamino]-benzenesulfonamide] | 21 | 10 | 100 | > 100 | > 10 | > 100 | 100
4 | NS(=O)(=O)c1ccc(Nc2nc(Nc3ccccn3)c3cn[nH]c3n2)cc1 [Cpd 8, 4-[4-(pyridin-2-ylamino)-1H-pyrazolo[3,4-d]pyrimidin-6-ylamino]-benzenesulfonamide] | 25 | 100 | 100 | 6.98 | 7.62 | 24.7 | 100
5 | c1cc2[nH]ncc2cc1Nc1nc(Nc2ccc3[nH]ncc3c2)c2cn[nH]c2n1 [Cpd 9, N^4,N^6-bis-(1H-indazol-5-yl)-1H-pyrazolo[3,4-d]pyrimidine-4,6-diamine] | 47 | 100 | 100 | 0.43 | 0.04 | 0.145 | 100
6 | O=S(=O)(NCCO)c1ccc(Nc2nc(Nc3ccc(C(F)(F)F)cc3)c3cn[nH]c3n2)cc1 [Cpd 10, N-(2-hydroxy-ethyl)-4-[4-(4-trifluoromethyl-phenylamino)-1H-pyrazolo[3,4-d]pyrimidin-6-ylamino]-benzenesulfonamide] | 31 | 10 | 1 | 3.49 | 0.377 | 1.52 | 3.4

Further lines, results first:

Row | inhibition at 2 µM [1] [%] | IC50 [2] [µM] | IC50 [3] [µM] | IC50 [4] [µM] | IC50 [5] [µM] | IC50 [6] [µM] | IC50 [7] [µM] | Compound
7 | 44 | 10 | 85.2 | 0.536 | 0.432 | 0.568 | 36 | NS(=O)(=O)c1ccc(Nc2nc(Nc3ccc4[nH]ncc4c3)nc3[nH]ncc23)cc1 [Cpd 12, 4-[6-(1H-indazol-5-ylamino)-1H-pyrazolo[3,4-d]pyrimidin-4-ylamino]-benzenesulfonamide]
8 | -4 | 2.6 | 1.9 | 3.67 | 0.494 | 2.59 | 4 | c1cc2cc(Nc3nc(Nc4ccc5[nH]ccc5c4)c4cn[nH]c4n3)ccc2[nH]1 [Cpd 13, N^4,N^6-bis-(1H-indol-5-yl)-1H-pyrazolo[3,4-d]pyrimidine-4,6-diamine]
9 | 22 | 100 | 100 | 90 | 3.88 | 12 | 100 | O=S(=O)(NCCO)c1ccc(Nc2nc(Nc3ccc(S(=O)(=O)NCCO)cc3)c3cnn(C4CCCCC4)c3n2)cc1 [Cpd 17, 1-cyclohexyl-N^4,N^6-bis-{4-[(2-hydroxy-ethyl)-amino-sulfonyl]-phenyl}-1H-pyrazolo[3,4-d]pyrimidine-4,6-diamine]
10 | 23 | 100 | 1.2 | > 100 | 0.493 | 2.79 | 100 | CC(C)(C)n1ncc2c(Nc3ccc(S(=O)(=O)NCCO)cc3)nc(Nc3ccc(S(=O)(=O)NCCO)cc3)nc21 [Cpd 18, 1-t-butyl-N^4,N^6-bis-{4-[(2-hydroxy-ethyl)-amino-sulfonyl]-phenyl}-1H-pyrazolo[3,4-d]pyrimidine-4,6-diamine]
11 | 12 | 100 | 100 | 75 | 9.18 | > 100 | 100 | O=S(=O)(NCCO)c1ccc(Nc2nc(Nc3ccc(S(=O)(=O)NCCO)cc3)c3cnoc3n2)cc1 [Cpd 19, N^4,N^6-bis-{4-[(2-hydroxy-ethyl)-amino-sulfonyl]-phenyl}-isoxazolo[5,4-d]pyrimidine-4,6-diamine]
